Test results as given in ChEMBL document CHEMBL1158463 (J Med Chem, 2009).

What follows are compounds tested on Canis familiaris (assay: Toxicity in dog assessed as change in cardiovascular variables up to 5 mg/kg by telemetry study). Conditions: in vivo.
Type: organism-based, Canis lupus familiaris, Heart
Design: dose 5 mg/kg
For O[C@H]1C[C@H](CN2CC[C@H](c3ccc(F)cc3Cl)[C@@H](O)C2)Cc2cccnc21, the Activity was “Non-toxic”.
CN1CC(C(=O)NCCCN2CCC3(CCc4ccccc43)CC2)CC1=O (stereo not drawn) was tested, and the Activity was “Non-toxic”.
With O=C(NCCCN1CCC2(CC1)OCc1ccccc12)[C@H]1CCCN1Cc1ccccc1 the Activity was “Non-toxic”.
With Cc1ccc2nc(NC(=O)c3ccc(Cl)cc3)nc(N[C@H]3CCCC[C@H]3NC(=N)N)c2c1 the Activity was “Non-toxic”.
In the case of COC(=O)C1Cc2ccccc2N1C(=O)CCN1CCC2(CCc3ccccc32)CC1 (stereo not drawn), the Activity is reported as “Non-toxic”.
In the case of Cc1cccc2c1CC[C@H](CN1CCC(c3c(Cl)cccc3Cl)CC1)C[C@@H]2O, the Activity is reported as “Non-toxic”.
In the case of CCN1CCN(c2cc3[nH]c(C(=O)[C@]4(C)CC[C@](C)(O)CC4)nc3cc2C)CC1, the Activity is reported as “Non-toxic”.
With CCc1ccc(OCc2ccccc2C(=O)Nc2ccc3nc(C)cc(N)c3c2)cc1 the Activity was “Non-toxic”.
